Experiments:
XPO1 protein = biological target: T1, XPO1 protein (Homo sapiens, UniProt O14980); assay: Inhibitory activity for XPO1 protein (NES-GFP nuclear export, laser confocal microscope); type: cell-based; conditions: NES-GFP nuclear export, cells treated for 2 hours
T1 construct: Sixteen hours later, NES-GFP plasmid was transfected with liposome; endogenous in cells
Source text: NES (nuclear export signal) is a nuclear export signal peptide recognized by XPO1 protein. XPO1 recognizes NES sequence peptide segment of biomacromolecule and exports the biomacromolecule out of nucleus. NES-GFP protein is obtained by co-expressing green fluorescence protein GFP and NES sequence peptide segment by using a eukaryotic expression plasmid. Inhibitory activity of the representative compound for XPO1 protein can be assessed by detecting influence of the compound on NES-GFP cell localization.
The cells were digested with trypsin, counted, and inoculated on 96-well plate in an amount of 1.5×10^4 cells per well. Sixteen hours later, NES-GFP plasmid was transfected with liposome.

TNF-α = assay: Serum TNF-α level of IBD animal model (ELISA); type: in vivo, SD rats; conditions: 80 mg/kg, three days after making the TNBS model
Source text: (§1) Inflammatory bowel disease is an autoimmune disease. […] The therapeutic effect of the representative compound for the immune system disease or inflammation can be assessed by detecting change in levels of some important cytokines such as TNF-α and IL-6 at downstream of the signal path.

IL-6 = assay: Serum IL-6 level of IBD animal model (ELISA); type: in vivo, SD rats; conditions: 80 mg/kg, three days after making the TNBS model
Source text: as §1

HMLE-Snail cell line = assay: Formation of HMLE-Snail cell line spheroids; type: cell-based; conditions: 10 μg/ml, treated for 24 hours; control = 100; read-out: Colony (%): cell colony number of drug-treated group/cell colony number of control group × 100%
Method: HMLE-Snail cell line is one of most classic cell models for studying tumor cell metastasis and EMT path. HMLE-Snail cell line highly expresses Snail protein, and thus one of most remarkable features thereof is that it has spherical cellular morphology (spheroid). […] The HMLE-Snail cell line used in the present invention was donated by Dr. Robert Weinberg from America Massachusetts Whitehead Institute. HMLE-Snail cells were suspended in a liquid culture medium (in which B-27 and N-2 were added, purchased from America Invitrogen Corporation) containing DMEM/F12 in a ratio of 1:1, in an amount of 1.0×10^3 cells/ml, and cultured in an ultra low attachment culture plate so as to allow spheroids to be formed. Seven days later, spheroids were collected by centrifugation, and counted. […] Docetaxel is a common clinical chemotherapy drug.

NCI-H1650 = assay: cells; type: cell-based; conditions: Homo sapiens; NCI-H1650, 72 hours; read-out: IC50
Method: (§2) NCI-H1975 and NCI-H1650 are two typical high metastasis type lung cancer cell lines. The therapeutic effect of the representative compound for the metastasis type lung cancers can be preliminarily assessed by detecting the inhibitory activity of the representative compound for the two cell lines. The lung cancer cell line was inoculated on 96-well cell culture plate in an amount of 6000 cells per well and cultured at 37° C. for 24 hours, and then treated solely with the compound added therein and cultured. Seventy-two hours later, MTT or CCK-8 method was used to detect the inhibitory activity of the compound for the two lung cancer cell lines.

NCI-H1975 = assay: cells; type: cell-based; conditions: Homo sapiens; NCI-H1975, 72 hours; read-out: IC50
Method: as §2

HCT116 = assay: Inhibitory activity for high metastasis type colon cancer cell line (MTT or CCK-8); type: cell-based; conditions: Homo sapiens, HCT-116; HCT116, 72 hours; read-out: IC50
Method: (§3) SW620 and HCT116 are two typical high metastasis type colon cancer cell lines. The colon cancer cell line was inoculated on 96-well cell culture plate in an amount of 6000 cells per well and cultured at 37° C. for 24 hours, and then treated solely with the compound added therein and cultured. Seventy-two hours later, MTT or CCK-8 method was used to detect the inhibitory activity of the compound for the two high metastasis type colon cancer cell lines.

SW620 = assay: as above; type: cell-based; conditions: Homo sapiens, SW-620; SW620, 72 hours; read-out: IC50
Method: as §3

Jeko-1 = assay: Inhibitory activity for high metastasis type lymphoma cell line (MTT or CCK-8); type: cell-based; conditions: Homo sapiens; Jeko-1, 72 hours; read-out: IC50
Method: (§4) Jeko-1, Raji and U2932 are three typical high metastasis type lymphoma cell lines. The lymphoma cell line was inoculated on 96-well cell culture plate in an amount of 6000 cells per well and cultured at 37° C. for 24 hours, and then treated solely with the compound added therein and cultured. Seventy-two hours later, MTT or CCK-8 method was used to detect the inhibitory activity of the compound for the two high metastasis type lymphoma cell lines.

Raji = assay: as above; type: cell-based; conditions: Homo sapiens, 72 hours, read-out: IC50
Method: as §4

U2932 = assay: as above; type: cell-based; conditions: Homo sapiens; U2932, 72 hours; read-out: IC50
Method: as §4

[1] = system: SK-OV3 (high metastasis type ovarian cancer cell line); assay: Ovarian cancer intraperitoneal metastasis animal model; type: in vivo, nudemice (BALB/c-nu/nu); conditions: Mus musculus, SK-OV-3, ip; for response vs control in vivo at 80 mg/kg: 504 h, 80 mg/kg intraperitoneal injection once a day for 3 weeks, read-out: T/C (%); for mortality at 80 mg/kg: 720 h, six mice per group, read-out: Mortality (within 30 days) (converted)
Method: The ovarian cancer intraperitoneal metastasis animal model is one of most classic animal models for studying anti-ovarian cancer metastasis drug. Sixty 5 to 6-week-old female nudemice with similar weight (BALB/c-nu/nu) were chosen. SK-OV3 (high metastasis type ovarian cancer cell line) stably expressing green fluorescence protein was screened, and prepared into a cell suspension of 2×10^6 cells/100 μl with serum-free PRMI1640 medium. […] Three weeks later, the cancer was detected with a small animal in vivo imaging apparatus (Xenogen, School of Medicine, Shanghai Jiaotong University) and photos thereof were taken. […] In the table, T represents the drug-treated group, and C represents the blank control group. T/C is (V/V0 of compound-treated group)/(V/V0 of blank control group) in which V represents the cancer volume of mouse on the day the detection was performed, and V0 represents the cancer volume of mouse on the day the administration begun.

IBD animal model = assay: Macroscopic pathological changes of IBD animal model (enteroclysis with TNBS); type: in vivo, SD rats; conditions: 80 mg/kg intragastrically daily, TNBS rats, score 0-5, 10 animals
Method: Eight-week-old male SD rats (10 rats per group) were fasted for 24 hours and anaesthetized with diethyl ether. 50% ethanol and TNBS (2,4,6-trinitrobenzenesulfonic acid) were mixed to prepare a solution. In the IBD model group, a tube made of vinyl resin was inserted 5 cm from anus, and enteroclysis was performed with the TNBS solution in a dose of 100 mg/kg. The rats were hung upside down 30 seconds later after the enteroclysis to ensure no leakage of the TNBS solution. In the control group, the TNBS solution was replaced with normal saline with which enteroclysis was performed. Seven days later after the enteroclysis with the TNBS solution or normal saline, animals were sacrificed and dissected. […] Two weeks later after treated with the drugs, the animals were sacrificed and dissected, and large intestine thereof was taken out and fixed in 4% formalin solution for 30 minutes. The large intestine of the animals was cut lengthwise from the mesentery side to take photos for rectum portion and measure the weight of rectum. Based on the macroscopic observation and judgment score (Table 2-1), ulceration and bleeding states of rectum portion were scored according to the macroscopic observation scoring standard.

T1 sequence (O14980 whole entry, species assumed): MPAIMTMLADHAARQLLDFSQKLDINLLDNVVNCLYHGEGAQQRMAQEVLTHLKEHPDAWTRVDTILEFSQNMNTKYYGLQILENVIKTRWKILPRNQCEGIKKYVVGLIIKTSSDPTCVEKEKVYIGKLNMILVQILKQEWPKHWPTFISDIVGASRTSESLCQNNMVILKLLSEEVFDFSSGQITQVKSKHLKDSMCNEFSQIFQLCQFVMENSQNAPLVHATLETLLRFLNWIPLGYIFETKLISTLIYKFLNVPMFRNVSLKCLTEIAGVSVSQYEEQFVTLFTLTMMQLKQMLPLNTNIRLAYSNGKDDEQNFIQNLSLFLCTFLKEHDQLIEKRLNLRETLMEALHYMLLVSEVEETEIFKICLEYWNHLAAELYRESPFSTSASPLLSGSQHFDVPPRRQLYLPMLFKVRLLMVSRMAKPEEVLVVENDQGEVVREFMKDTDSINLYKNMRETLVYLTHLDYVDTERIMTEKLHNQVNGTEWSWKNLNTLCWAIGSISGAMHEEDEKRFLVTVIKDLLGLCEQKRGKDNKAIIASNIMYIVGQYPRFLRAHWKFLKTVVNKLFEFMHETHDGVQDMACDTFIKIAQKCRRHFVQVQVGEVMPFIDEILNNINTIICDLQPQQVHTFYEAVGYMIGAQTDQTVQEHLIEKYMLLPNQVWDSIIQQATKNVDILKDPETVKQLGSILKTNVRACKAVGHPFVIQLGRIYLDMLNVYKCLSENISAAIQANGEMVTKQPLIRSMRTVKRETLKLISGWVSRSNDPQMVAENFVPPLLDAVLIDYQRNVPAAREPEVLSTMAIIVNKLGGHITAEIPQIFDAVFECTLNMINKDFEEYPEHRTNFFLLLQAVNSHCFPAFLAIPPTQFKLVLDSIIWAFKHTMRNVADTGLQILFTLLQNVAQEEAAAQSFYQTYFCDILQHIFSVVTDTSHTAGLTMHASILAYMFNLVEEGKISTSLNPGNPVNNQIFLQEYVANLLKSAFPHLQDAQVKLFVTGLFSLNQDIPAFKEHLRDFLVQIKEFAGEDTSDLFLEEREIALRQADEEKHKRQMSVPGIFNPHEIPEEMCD

SMILES | Activity (μM): inhibitory activity for XPO1 protein (full inhibitory concentration) (XPO1 protein) | Serum TNF-α level, Animal-1 (TNF-α) | Serum TNF-α level, Animal-2 (TNF-α) | Serum TNF-α level, Animal-3 (TNF-α) | Serum IL-6 level, Animal-1 (IL-6) | Serum IL-6 level, Animal-2 (IL-6) | Serum IL-6 level, Animal-3 (IL-6) | activity at 10 µg/mL (HMLE-Snail cell line) | IC50 (NCI-H1650) | IC50 (NCI-H1975) | IC50 (HCT116) | IC50 (SW620) | IC50 (Jeko-1) | IC50 (Raji) | IC50 (U2932) | response vs control in vivo at 80 mg/kg [1] | mortality at 80 mg/kg [1] | Macroscopic pathological score (IBD animal model)
CCC[S+]([O-])/C=C/CCN=C=S (centres unmarked) [Compound F-01, reference compound] | 10 to 15 µM | 2.0 ng/mL | 1.7 ng/mL | 1.9 ng/mL | 1.8 ng/mL | 1.9 ng/mL | 2.0 ng/mL | 60 to 65% | 5.4 µM | 6.9 µM | 3.5 µM | 4.1 µM | 3.5 µM | 3.7 µM | 5.2 µM | 37% | 0% | –
[O-][S+](/C=C/CCN=C=S)C1CC1 (centres unmarked) [Compound F-03, reference compound] | 5 to 10 µM | 1.7 ng/mL | 1.6 ng/mL | 1.5 ng/mL | 1.7 ng/mL | 1.8 ng/mL | 1.8 ng/mL | 55 to 60% | 4.9 µM | 5.8 µM | 2.9 µM | 3.3 µM | 3.1 µM | 3.2 µM | 4.9 µM | 35% | 0% | 2.5 ± 0.6
CS/C=C/CCN=C=S [Compound F-06, reference compound] | 15 to 20 µM | 2.3 ng/mL | 2.0 ng/mL | 2.2 ng/mL | 2.8 ng/mL | 2.5 ng/mL | 2.3 ng/mL | 70 to 75% | 16.3 µM | 17.2 µM | 15.6 µM | 17.8 µM | 12 µM | 13.5 µM | 14.7 µM | 80% | 16.7% | 3.5 ± 0.2

— patent US10315990B2, “Isothiocyanate compounds and isothiocyanate XPO1 protein inhibitor drugs thereof” (DRIVINGFORCE THERAPEUTICS Co., Ltd., priority 2015, dated 2019)
